Laboratory results reported in patent US9970945B2, “Compositions, methods, and assays using proteo-liposome-transfected oocytes for analyzing the structure, function, and activity of membrane proteins” (Georgia State University Research Foundation, Inc., priority 2013, dated 2018).
Values belong to the compound of their own block, whether it stands above or below them.

Assays:
Cx26 = target: T1, Cx26 (Homo sapiens, UniProt P29033); assay: Cx26-proteoliposome hemi-channel activity in Xenopus oocytes; type: cell-based
T1 construct: His6 (C); made in house; host or cells: insect Sf9 cells, Bac-to-Bac baculovirus system
Description: Voltage Clamp was performed to measure the opening of protein conducting channels. When the channel on the cell membrane was opened, ions pass through the membrane and generate the ionic current. Thus, the recording of ionic current could also mean the opening of the protein conducting channel. Currents through the plasma membranes of oocytes were measured after the oocytes were injected with tested materials. The cells were place in a recording chamber (BSC-HT, Medical System, Greenvale, N.Y.) on a supporting nylon mesh, so that the perfusion solution bathed both the top and the bottom surface of the oocytes. Two electrode voltage clamping was performed using an amplifier (Geneclamp 500, Axon instruments Inc., Foster City, Calif.) at room temperature (23-25° C.). Cells were impaled using electrodes filled with 3 M KCl. One of the electrode (1.0-2.0 MΩ) used for voltage recording was connected to the HS-2×1 L headstage (input resistance, […]), and the other electrode (0.3-0.6 MΩ) was used for current recording to the HS-2×10 MG headstage (maximum current, 130 μA). The electrode was connected through a silver wire that was chloridized freshly for each experiment. Oocytes were used for further experiments only if their leak currents measured as the difference before and after a leak subtraction were less than 10% of the peak currents. The leak subtraction was not applied for data acquisition and analysis. Current records were low-pass filtered (Bessel, 4-pole filter, 3 db at 5 kHz), digitized at 5 kHz (12 but resolution), and analyzed using pClamp6 (Axon Instruments). The highest and lowest records were eliminated, and then the data are presented as mean±S.E. (standard error; n, number of oocytes). The expression rates for each injection sample were also collected as a record to determine the channel activity efficiency.
The E. coli liposomes treated with detergent were mixed with purified Cx26 protein at 10:1 ratio. Then the mixture was dialyzed in dialysis solution (0.25 M Sucrose, 0.4 M KOAC, 20 mM triethanolamine hydrocholoride pH7.5, 1.5 mM Mg(OAC)2 and 1 mM EDTA) at 4° C. for 15-18 hours to reconstitute the Cx-26-proteoliposomes.
10 ng reconstituted Cx26-proteoliposomes was mixed with or without EGTA or CaCl2 and injected into oocytes. The injected oocytes were incubated at 23° C. for 30 mins with 1.8 mM CaCl2 to suppress the bubbling. Recording bath solution was 90K (90 mM KCl, 5 mM HEPES, 3 mM MgCl2) without Ca^2+. For Ca^2+ inhibition, the CaCl2 was added in the extracellular recording bath solution during the recording.

PaSecA = target: T2, PaSecA (Pseudomonas aeruginosa, UniProt Q9LCT3); assay: SecA-liposomes ion-channel activity in Xenopus oocytes (two-electrode voltage clamp); type: cell-based, P. aeruginosa; conditions: injected PaSecA-liposomes in oocytes
T2 construct: made in house; host or cells: E. coli BL21.19
T2 sequence (Q9LCT3 whole entry): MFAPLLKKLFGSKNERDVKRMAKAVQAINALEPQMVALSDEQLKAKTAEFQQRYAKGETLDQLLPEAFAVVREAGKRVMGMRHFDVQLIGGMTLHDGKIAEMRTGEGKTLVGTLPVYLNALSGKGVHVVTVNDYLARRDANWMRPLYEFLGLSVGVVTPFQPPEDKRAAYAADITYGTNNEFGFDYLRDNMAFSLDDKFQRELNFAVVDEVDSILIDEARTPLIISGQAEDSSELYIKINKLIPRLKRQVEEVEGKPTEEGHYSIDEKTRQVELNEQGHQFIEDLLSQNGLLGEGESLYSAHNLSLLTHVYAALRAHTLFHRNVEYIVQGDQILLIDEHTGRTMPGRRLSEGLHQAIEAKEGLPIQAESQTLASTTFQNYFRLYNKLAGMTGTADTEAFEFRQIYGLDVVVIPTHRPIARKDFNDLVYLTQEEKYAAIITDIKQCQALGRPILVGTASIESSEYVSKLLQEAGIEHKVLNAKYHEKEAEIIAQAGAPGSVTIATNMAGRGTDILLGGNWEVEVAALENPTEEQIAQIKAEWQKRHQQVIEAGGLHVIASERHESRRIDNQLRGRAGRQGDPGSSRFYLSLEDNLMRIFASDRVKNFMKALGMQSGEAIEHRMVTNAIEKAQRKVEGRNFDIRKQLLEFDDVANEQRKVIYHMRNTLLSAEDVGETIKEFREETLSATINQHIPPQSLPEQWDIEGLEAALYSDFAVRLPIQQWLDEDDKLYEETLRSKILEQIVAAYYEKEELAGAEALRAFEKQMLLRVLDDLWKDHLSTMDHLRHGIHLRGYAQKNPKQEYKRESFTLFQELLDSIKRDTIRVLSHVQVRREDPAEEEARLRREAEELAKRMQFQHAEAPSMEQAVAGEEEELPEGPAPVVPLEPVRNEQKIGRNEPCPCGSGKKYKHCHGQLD

[1] = target: T3, E. coli SecA translocation ATPase (Escherichia coli, UniProt P10408); assay: In vitro translocation ATPase inhibition kinetics; type: biochemical; conditions: requires SecYEG and precursors
T3 construct: made in house; host or cells: E. coli BL21(λDE3)/pT7-SecA (SecA); E. coli membranes supply SecYEG
T3 sequence (P10408 whole entry): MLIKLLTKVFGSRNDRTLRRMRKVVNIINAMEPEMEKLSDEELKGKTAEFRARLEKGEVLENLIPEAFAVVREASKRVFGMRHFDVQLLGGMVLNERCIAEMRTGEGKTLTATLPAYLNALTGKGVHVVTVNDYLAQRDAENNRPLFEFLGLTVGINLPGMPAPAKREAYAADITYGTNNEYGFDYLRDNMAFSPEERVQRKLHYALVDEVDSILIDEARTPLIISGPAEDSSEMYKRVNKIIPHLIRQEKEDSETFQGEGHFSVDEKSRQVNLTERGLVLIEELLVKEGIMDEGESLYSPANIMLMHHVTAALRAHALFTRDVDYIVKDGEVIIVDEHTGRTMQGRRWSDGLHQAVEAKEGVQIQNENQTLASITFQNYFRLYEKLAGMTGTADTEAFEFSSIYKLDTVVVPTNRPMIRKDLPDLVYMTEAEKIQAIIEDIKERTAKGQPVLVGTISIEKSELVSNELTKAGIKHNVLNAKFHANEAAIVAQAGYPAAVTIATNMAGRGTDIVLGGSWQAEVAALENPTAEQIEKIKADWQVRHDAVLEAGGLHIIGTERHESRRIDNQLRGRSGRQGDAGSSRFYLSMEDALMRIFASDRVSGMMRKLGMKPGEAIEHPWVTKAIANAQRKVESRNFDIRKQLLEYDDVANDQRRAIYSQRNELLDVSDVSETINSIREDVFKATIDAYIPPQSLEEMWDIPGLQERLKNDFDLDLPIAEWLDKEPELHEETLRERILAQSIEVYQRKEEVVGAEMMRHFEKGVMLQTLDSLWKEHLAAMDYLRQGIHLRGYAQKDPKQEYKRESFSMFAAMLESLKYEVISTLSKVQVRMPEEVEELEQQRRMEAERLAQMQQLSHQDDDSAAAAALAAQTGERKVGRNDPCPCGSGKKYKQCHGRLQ
T3 sequence (P0AGA2 whole entry, further chain): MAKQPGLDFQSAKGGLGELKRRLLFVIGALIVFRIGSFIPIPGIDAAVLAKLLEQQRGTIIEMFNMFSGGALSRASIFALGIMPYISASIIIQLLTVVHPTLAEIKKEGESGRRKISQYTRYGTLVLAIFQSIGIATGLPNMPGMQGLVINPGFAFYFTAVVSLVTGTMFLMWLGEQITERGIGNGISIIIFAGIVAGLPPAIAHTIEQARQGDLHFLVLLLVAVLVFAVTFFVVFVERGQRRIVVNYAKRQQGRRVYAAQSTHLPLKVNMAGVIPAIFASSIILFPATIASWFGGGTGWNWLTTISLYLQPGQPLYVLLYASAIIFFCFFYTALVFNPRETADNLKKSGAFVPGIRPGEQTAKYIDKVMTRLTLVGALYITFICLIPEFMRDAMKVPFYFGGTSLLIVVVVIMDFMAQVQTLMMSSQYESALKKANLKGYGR
T3 sequence (P0AG96 whole entry, further chain): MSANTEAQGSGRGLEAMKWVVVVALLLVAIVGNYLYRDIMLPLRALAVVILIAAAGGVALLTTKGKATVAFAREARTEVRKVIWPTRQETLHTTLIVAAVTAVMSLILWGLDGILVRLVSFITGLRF
T3 sequence (P0AG99 whole entry, further chain): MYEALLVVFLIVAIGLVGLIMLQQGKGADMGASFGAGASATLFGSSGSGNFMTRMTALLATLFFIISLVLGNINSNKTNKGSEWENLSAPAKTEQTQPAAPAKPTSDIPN

[2] = target: Soluble SecA intrinsic ATPase (Escherichia coli, UniProt P10408); assay: Soluble SecA intrinsic ATPase inhibition kinetics; type: biochemical; conditions: data not shown
Sequence of Soluble SecA intrinsic ATPase (P10408 whole entry): as the sequence (P10408 whole entry) above

EcSecA = target: T4, EcSecA (Escherichia coli, UniProt P10408); type: cell-based, E. coli; conditions: channel activity assay
T4 construct: made in house; host or cells: E. coli BL21(λDE3)/pT7-SecA
T4 sequence (P10408 whole entry): as above

Cx26 channel current (Cx26; 10 mM EGTA in extracellular recording bath, from 2 μA): 7 μA
Cx26 hemi-channel activity (current) (Cx26; co-injection with 5 mM EGTA, Cx26-liposomes alone around 2 μA): 7 μA
SMILES: O=C(O)CN(CCOCCOCCN(CC(=O)O)CC(=O)O)CC(=O)O [EGTA]

SMILES: O=C(O)c1c(Cl)c(Cl)c(Cl)c(Cl)c1-c1c2cc(I)c(=O)c(I)c-2oc2c(I)c(O)c(I)cc12 [RB, Rose Bengal]
Inhibition kinetics with ATP, channel activity (PaSecA): non-competitive
Inhibition kinetics with ATP [1]: non-competitive
Inhibition kinetics with RB ([2]; high ATP): competitive
Inhibition kinetics with RB ([2]; low ATP): non-competitive

SMILES: Oc1ccc2c(c1)Oc1cc(O)ccc1C2C1CCCCC1 [22d]
Potency against EcSecA relative to BsSecA (EcSecA): about 2 fold

Cx26 channel current (Cx26; 30 mM CaCl2 added to same extracellular bath after EGTA, 2 mins incubation): 1.3 μA
Effect on Cx26 channel activity (Cx26; CaCl2 co-injected with 5 mM EGTA): reduced the activity
Half-time of inhibition of Cx26 channel activity (Cx26; CaCl2 in extracellular bath solution): about 1 min
Effect on Cx26 channel activity (Cx26; co-injection with 2 mM CaCl2): slightly inhibited
SMILES: [Ca+2].[Cl-].[Cl-] [CaCl2]
